Tests used:
recombinant human MER = target: T1, recombinant human MER (Homo sapiens, UniProt Q12866); test: Biochemical potency, HTRF KinEASE-TK kinase assay; settings: 1 nM MER, 700 μM ATP
T1 construct: purchased Invitrogen
T1 sequence (Q12866 21-999): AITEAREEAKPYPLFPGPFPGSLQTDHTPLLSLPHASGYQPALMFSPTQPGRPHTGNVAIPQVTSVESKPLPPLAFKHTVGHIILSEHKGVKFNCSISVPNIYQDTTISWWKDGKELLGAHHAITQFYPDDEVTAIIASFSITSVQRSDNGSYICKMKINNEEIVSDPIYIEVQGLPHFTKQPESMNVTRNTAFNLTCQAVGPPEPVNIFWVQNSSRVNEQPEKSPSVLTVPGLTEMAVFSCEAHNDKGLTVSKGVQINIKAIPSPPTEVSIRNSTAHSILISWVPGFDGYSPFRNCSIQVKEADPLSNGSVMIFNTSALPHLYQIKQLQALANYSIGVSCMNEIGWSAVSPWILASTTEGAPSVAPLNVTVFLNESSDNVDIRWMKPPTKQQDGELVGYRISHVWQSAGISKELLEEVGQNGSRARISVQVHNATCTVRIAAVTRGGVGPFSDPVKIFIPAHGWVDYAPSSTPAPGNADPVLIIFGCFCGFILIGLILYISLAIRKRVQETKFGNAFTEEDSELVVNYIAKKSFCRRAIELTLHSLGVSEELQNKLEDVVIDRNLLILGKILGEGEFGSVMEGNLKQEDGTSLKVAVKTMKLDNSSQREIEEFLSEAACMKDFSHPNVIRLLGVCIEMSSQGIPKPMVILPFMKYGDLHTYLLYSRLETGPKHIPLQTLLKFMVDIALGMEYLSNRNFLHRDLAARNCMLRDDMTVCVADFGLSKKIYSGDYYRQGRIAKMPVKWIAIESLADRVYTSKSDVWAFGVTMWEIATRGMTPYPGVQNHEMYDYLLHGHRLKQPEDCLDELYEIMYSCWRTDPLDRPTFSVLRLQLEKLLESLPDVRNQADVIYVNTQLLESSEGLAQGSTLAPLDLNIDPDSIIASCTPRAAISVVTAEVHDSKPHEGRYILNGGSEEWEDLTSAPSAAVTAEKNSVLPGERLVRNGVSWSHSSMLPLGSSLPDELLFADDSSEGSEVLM
How it was run: (§1)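 HTRF 665/620 readout after a 2 h RT kinase reaction (final 700 μM ATP, 800 nM biotinylated TK substrate, 1% DMSO, HEPES pH 7.4 buffer) gave percent activity. Final enzyme was 5 nM for AXL, 1 nM for TYRO3 or MER, each preincubated 1 h with compound.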

recombinant human TYRO3 = target: T2, recombinant human TYRO3 (Homo sapiens, UniProt Q06418); test: Biochemical potency, HTRF KinEASE-TK kinase assay; settings: 1 nM TYRO3, 700 μM ATP
T2 construct: purchased Invitrogen
T2 sequence (Q06418 41-890): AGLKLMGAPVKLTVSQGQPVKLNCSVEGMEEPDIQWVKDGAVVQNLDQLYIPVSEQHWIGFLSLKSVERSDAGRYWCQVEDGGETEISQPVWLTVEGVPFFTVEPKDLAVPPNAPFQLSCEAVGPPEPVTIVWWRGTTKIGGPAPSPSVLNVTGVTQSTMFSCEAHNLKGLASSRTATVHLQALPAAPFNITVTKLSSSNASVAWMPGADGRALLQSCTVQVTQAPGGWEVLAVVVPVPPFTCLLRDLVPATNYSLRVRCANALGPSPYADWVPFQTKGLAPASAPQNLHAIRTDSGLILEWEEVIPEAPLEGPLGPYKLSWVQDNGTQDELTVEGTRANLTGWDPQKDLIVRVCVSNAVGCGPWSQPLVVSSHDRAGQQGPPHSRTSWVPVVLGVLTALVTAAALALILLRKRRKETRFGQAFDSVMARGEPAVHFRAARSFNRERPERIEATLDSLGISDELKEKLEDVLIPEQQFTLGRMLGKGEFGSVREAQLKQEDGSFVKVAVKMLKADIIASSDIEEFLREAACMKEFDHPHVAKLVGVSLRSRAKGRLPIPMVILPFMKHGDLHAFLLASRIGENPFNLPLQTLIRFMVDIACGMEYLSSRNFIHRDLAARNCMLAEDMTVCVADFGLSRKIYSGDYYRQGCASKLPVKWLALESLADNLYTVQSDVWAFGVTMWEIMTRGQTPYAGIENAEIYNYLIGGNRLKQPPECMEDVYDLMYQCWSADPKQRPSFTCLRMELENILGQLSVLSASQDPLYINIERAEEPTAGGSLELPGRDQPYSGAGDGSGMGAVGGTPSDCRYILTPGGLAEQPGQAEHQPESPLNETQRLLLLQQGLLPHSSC
How it was run: as §1

| Compound | IC50 (recombinant human MER) [µM] | IC50 (recombinant human TYRO3) [µM] |
| --- | --- | --- |
| CCc1cccnc1-c1ccc(-c2n[nH]c3ncc(-c4ccc5c(c4)CC[C@@H](N4C6COCC4C6)CC5)cc23)cc1 [Example 182, 6-[(7S)-2-{3-[4-(3-Ethylpyridin-2-yl)phenyl]-1H-pyrazolo[3,4-b]pyridin-5-yl}-6,7,8,9-tetrahydro-5H-benzo[7]annulen-7-yl]-3-oxa-6-azabicyclo[3.1.1]heptane] | 0.1 to 1 | < 0.1 |
| Cc1cccnc1-c1ccc(-c2c[nH]c3ncc(-c4ccc5c(c4)CC[C@@H](N4C6COCC4C6)CC5)cc23)nc1 [Example 96, 3-Methyl-6′-{5-[(7S)-7-{3-oxa-6-azabicyclo[3.1.1]heptan-6-yl}-6,7,8,9-tetrahydro-5H-benzo[7]annulen-2-yl]-1H-pyrrolo[2,3-b]pyridin-3-yl}-2,3′-bipyridine] | 0.1 to 1 | < 0.1 |
| Cc1nn(C)nc1-c1ccc(-c2n[nH]c3ncc(-c4ccc5c(c4)CC[C@@H](N4C6COCC4C6)CC5)cc23)cc1 [Example 14, 6-[(7S)-2-{3-[4-(2,5-Dimethyl-2H-1,2,3-triazol-4-yl)phenyl]-1H-pyrazolo[3,4-b]pyridin-5-yl}-6,7,8,9-tetrahydro-5H-benzo[7]annulen-7-yl]-3-oxa-6-azabicyclo[3.1.1]heptane] | 0.1 to 1 | < 0.1 |

Further lines, results first:

| IC50 (recombinant human MER) [µM] | IC50 (recombinant human TYRO3) [µM] | Compound |
| --- | --- | --- |
| > 1 | > 1 | FC(F)(F)Oc1cccnc1-c1ccc(-c2c[nH]c3ncc(-c4ccc5c(c4)CC[C@@H](N4C6COCC4C6)CC5)cc23)cc1 [Example 103, 6-[(7S)-2-(3-{4-[3-(Trifluoromethoxy)pyridin-2-yl]phenyl}-1H-pyrrolo[2,3-b]pyridin-5-yl)-6,7,8,9-tetrahydro-5H-benzo[7]annulen-7-yl]-3-oxa-6-azabicyclo[3.1.1]heptane] |
| 0.1 to 1 | < 0.1 | CCc1cccnc1-c1ccc(-c2c[nH]c3ncc(-c4ccc5c(c4)CC[C@@H](N4C6COCC4C6)CC5)cc23)cc1 [Example 183, 6-[(7S)-2-{3-[4-(3-Ethylpyridin-2-yl)phenyl]-1H-pyrrolo[2,3-b]pyridin-5-yl}-6,7,8,9-tetrahydro-5H-benzo[7]annulen-7-yl]-3-oxa-6-azabicyclo[3.1.1]heptane] |
| 0.1 to 1 | 0.1 to 1 | CN(C)S(=O)(=O)c1cccnc1-c1ccc(-c2c[nH]c3ncc(-c4ccc5c(c4)CC[C@@H](N4C6COCC4C6)CC5)cc23)cc1 [Example 6, N,N-Dimethyl-2-(4-{5-[(7S)-7-{3-oxa-6-azabicyclo[3.1.1]heptan-6-yl}-6,7,8,9-tetrahydro-5H-benzo[7]annulen-2-yl]-1H-pyrrolo[2,3-b]pyridin-3-yl}phenyl)pyridine-3-sulfonamide] |
